In ChEMBL document CHEMBL1201862, “PubChem BioAssay data set” (2004):
Several values for one entry are separate records, joined by “and”; a condition that tells them apart may be missing. Equal entries are not always repeated. Activity calls are given as the source filed them.

How the values were obtained:
[1] = molecular target: T1, Leucine aminopeptidase (Plasmodium falciparum 3D7, UniProt Q8IL11); test: P. falciparum M17LAP inhibitors, primary screen, biochemical, fluorogenic H-Leu-NHMec substrate, 1536-well (AID 1619); type: functional
T1 sequence (Q8IL11 whole entry): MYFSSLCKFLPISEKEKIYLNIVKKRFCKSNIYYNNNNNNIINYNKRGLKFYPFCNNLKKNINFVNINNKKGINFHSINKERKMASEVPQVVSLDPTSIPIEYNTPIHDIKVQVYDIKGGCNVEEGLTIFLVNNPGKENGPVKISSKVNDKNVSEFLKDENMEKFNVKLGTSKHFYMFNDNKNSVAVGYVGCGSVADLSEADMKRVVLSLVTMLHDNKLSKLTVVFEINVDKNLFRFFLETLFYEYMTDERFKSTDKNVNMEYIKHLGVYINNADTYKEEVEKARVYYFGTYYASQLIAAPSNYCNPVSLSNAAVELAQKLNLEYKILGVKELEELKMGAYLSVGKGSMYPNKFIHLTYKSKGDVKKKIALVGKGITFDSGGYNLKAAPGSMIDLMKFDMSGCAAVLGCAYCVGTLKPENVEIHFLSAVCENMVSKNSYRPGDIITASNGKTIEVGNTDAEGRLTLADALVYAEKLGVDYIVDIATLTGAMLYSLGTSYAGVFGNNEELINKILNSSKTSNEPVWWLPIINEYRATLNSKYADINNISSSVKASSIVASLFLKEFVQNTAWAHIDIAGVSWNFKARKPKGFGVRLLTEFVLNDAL

[2] = molecular target: Aspartyl aminopeptidase (Plasmodium falciparum 3D7, UniProt Q8I2J3); test: Counterscreen for inhibitors of M1 and M17 aminopeptidases: QFRET-based biochemical high throughput dose response assay for inhibitors of the Plasmodium falciparum M18 Aspartyl Aminopeptidase (PFM18AAP). [Related PubChem assays: 1619 (Screening assay (M17LAP inhibitors).), 1445 (Screening assay (M1AAP inhibitors).)]
[3] = molecular target: Procathepsin L (Homo sapiens, UniProt P07711); test: cathepsin L inhibitors, dose response, counter-screen for M1/M17 aminopeptidase inhibitor project, biochemical, QFRET, 1536-well (AID 2214)
[4] = molecular target: T2, Short transient receptor potential channel 4 (Mus musculus, UniProt Q9QUQ5); test: mouse TRPC4 channel inhibitors, dose response, cell-based, HEK293 TRPC4/mu-opioid, Fluo-4 calcium (AID 434942); type: functional;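 also: potency of inhibitors blocking the TRPC4 calcium response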
T2 sequence (Q9QUQ5 whole entry): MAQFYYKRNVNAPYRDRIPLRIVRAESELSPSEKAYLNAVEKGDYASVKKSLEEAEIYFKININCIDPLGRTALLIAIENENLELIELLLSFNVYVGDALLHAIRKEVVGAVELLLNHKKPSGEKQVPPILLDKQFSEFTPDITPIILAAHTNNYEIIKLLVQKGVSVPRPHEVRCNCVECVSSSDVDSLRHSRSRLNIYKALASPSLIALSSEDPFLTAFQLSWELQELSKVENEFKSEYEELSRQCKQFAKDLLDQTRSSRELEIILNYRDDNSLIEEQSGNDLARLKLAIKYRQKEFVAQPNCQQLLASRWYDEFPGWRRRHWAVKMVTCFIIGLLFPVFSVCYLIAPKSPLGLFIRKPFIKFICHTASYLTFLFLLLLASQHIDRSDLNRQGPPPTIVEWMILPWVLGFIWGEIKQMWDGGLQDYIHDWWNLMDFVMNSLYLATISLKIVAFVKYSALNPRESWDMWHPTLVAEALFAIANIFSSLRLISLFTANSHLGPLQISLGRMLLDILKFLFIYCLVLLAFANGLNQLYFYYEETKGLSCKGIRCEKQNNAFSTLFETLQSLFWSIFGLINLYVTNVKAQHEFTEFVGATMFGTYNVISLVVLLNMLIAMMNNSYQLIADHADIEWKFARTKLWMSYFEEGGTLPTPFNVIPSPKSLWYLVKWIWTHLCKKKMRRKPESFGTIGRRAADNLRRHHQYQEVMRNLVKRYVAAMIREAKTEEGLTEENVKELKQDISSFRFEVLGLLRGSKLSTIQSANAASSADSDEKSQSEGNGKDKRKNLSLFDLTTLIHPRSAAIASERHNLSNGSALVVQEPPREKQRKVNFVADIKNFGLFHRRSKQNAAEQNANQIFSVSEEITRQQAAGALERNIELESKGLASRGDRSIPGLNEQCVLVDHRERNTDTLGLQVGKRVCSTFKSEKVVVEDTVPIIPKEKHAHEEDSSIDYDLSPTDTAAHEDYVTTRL

[5] = molecular target: Potassium voltage-gated channel subfamily KQT member 2 (Rattus norvegicus, UniProt O88943, W236L); test: KCNQ2 channel potentiators, dose response, mechanism study for KCNQ2 potentiator project, cell-based, automated electrophysiology (AID 2603); type: functional
[6] = molecular target: T3, Bcl-2-like protein 10 (Homo sapiens, UniProt Q9HD36); test: Biochemical TR3 FP assay of Bcl-B inhibitor potency, EC50 (AID 1243); type: functional
T3 sequence (Q9HD36 whole entry): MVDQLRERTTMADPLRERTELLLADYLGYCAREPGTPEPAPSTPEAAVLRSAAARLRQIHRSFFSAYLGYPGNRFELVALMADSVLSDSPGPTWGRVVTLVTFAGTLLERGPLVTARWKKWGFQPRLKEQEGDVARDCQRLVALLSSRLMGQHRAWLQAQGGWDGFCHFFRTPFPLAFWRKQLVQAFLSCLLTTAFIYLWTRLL

[7] = molecular target: NS3 (Hepatitis C virus, UniProt A3EZJ3); test: HCV NS3 helicase inhibitor potency, dose response, biochemical, fluorescence polarization, ChemBridge library (AID 743264)
[8] = NIH-3T3 fibroblast cytotoxicity, dose response, cytotoxicity control, cell-based, fluorescence, Alamar Blue, secondary assay (AID 2327); type: functional;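 also: NIH-3T3 mouse fibroblasts cultured with fluconazole at 8 µg/mL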
[9] = molecular target: T4, Mannose-6-phosphate isomerase (Homo sapiens, UniProt P34949); test: inhibitors of human PMI, primary screen, biochemical, fluorescence intensity, coupled assay (AID 1209)
T4 sequence (P34949 whole entry): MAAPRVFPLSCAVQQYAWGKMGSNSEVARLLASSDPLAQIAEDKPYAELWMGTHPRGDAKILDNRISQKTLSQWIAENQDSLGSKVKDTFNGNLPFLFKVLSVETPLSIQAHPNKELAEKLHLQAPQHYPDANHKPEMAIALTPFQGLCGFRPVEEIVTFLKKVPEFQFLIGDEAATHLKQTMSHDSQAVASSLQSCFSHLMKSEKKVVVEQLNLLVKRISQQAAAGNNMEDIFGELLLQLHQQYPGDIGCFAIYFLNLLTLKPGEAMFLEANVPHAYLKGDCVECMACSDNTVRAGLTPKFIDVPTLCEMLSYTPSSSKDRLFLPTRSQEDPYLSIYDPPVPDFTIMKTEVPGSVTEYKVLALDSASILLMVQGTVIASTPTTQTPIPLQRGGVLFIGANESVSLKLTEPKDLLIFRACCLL

[10] = molecular target: T5, Protein Tat (Human immunodeficiency virus type 1 group M subtype B (isolate HXB2)(HIV-1), UniProt P04608); type: functional;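 also: tat binding to TAR RNA read out by fluorescence polarization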
T5 sequence (P04608 whole entry): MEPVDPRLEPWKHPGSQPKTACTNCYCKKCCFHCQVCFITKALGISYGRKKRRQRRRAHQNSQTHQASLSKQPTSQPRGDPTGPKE

[11] = THP-1 cell cytotoxicity, dose response, cytotoxicity control for Vif-APOBEC3G degradation inhibitor project, THP-1 cells (AID 1117359); type: functional; conditions: Human immunodeficiency virus 1, THP-1
[12] = molecular target: T6, Neuropeptide Y receptor type 1 (Homo sapiens, UniProt P25929); type: functional;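 also: HEK293 cells with a CNG channel challenged with NPY then isoproterenol; potency as antagonist that reverses NPY suppression of cAMP signal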
[13] = molecular target: T7, Neuropeptide Y receptor type 2 (Homo sapiens, UniProt P49146); type: functional, cell-based;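 also: HEK293 cells expressing the receptor and a CNG channel; stimulus was NPY near EC95 followed by isoproterenol to raise cAMP; antagonist potency measured as restoring cAMP signal that NPY suppresses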
[14] = molecular target: T8, Estrogen receptor (Homo sapiens, UniProt P03372); test: potentiators of ERα–SRC-1 coactivator binding, dose response, biochemical, TR-FRET, ERα LBD (AID 737)
T8 sequence (P03372 whole entry): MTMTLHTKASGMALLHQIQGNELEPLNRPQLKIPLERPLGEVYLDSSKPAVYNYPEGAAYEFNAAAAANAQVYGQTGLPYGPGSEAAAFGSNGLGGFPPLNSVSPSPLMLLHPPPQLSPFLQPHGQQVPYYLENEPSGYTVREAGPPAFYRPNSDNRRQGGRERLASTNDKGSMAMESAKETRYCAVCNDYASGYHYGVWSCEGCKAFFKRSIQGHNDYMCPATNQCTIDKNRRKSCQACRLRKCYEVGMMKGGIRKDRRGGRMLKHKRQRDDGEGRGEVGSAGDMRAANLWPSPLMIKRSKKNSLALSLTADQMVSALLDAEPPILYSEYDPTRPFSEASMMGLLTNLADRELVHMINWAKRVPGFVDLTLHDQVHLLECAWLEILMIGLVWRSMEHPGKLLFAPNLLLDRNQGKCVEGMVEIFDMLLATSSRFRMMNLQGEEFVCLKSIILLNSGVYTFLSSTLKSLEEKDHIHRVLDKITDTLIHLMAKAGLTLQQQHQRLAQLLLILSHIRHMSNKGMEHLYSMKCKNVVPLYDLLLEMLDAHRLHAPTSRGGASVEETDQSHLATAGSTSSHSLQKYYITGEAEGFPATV

[15] = molecular target: Sphingosine 1-phosphate receptor 2 (Homo sapiens, UniProt O95136); test: Dose Response Cell Based Assay for Agonists of the S1P2 Receptor of Purchased Analogues. [Related pubchem assays: 729, 843, 854, 736 ]; type: functional
[16] = molecular target: T9, Heat shock 70 kDa protein 1A (Homo sapiens, UniProt P0DMV8); test: Hsp70 inhibitors, biochemical, TR-FRET (AID 786)
[17] = molecular target: T3, Bcl-2-like protein 10; test: displacers of TR3 peptide from Bcl-B, primary screen, selectivity assay for Bfl-1 inhibitor project, biochemical, fluorescence polarization, FITC-TR3 peptide (AID 748);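 also: fluorescence polarization from a fluorescein-labelled TR3 peptide binding purified Bcl-B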
[18] = molecular target: T9, Heat shock 70 kDa protein 1A; test: Hsp70 inhibitors, probe displacement, primary screen, biochemical, fluorescence polarization (AID 583)
[19] = molecular target: T10, Tyrosine-protein phosphatase non-receptor type 7 (Homo sapiens, UniProt P35236); test: redox-dependent HePTP inhibition, mechanism study, biochemical, fluorescence (AID 2068); type: functional
T10 sequence (P35236 whole entry): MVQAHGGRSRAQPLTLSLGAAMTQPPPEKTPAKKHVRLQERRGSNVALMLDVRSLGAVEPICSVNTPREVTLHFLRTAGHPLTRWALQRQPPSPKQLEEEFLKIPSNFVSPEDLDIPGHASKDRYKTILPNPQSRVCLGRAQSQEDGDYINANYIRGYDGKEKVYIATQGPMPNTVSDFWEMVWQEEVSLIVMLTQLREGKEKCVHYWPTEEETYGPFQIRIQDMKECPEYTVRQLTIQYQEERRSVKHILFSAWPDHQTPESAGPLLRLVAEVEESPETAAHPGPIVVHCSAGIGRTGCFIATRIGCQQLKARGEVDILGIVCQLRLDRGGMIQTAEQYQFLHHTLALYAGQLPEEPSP

[20] = molecular target: T7, Neuropeptide Y receptor type 2; test: NPY-Y2 antagonist potency, selectivity check, dose response, counter-screen for NPY-Y1 antagonist project, cell-based (AID 1278); type: functional
[21] = molecular target: T6, Neuropeptide Y receptor type 1; test: NPY-Y1 receptor antagonist potency, dose response, cell-based (AID 1277); type: functional
[22] = molecular target: Potassium voltage-gated channel subfamily KQT member 2 (Rattus norvegicus, UniProt O88943); test: KCNQ2 potassium channel inhibitors, dose response, cell-based, automated electrophysiology, set II, rat KCNQ2 (AID 588637); type: functional
[23] = HEp-2 cell cytotoxicity, dose response, cytotoxicity control for RSV inhibitor project, HTS (AID 2410); type: functional; conditions: human respiratory syncytial virus
[24] = Luminescence Cell-Based Dose Confirmation HTS to Identify Activators of 5'UTR Stem-Loop Driven Alpha-Synuclein mRNA Translation in H4 Neuroglioblastoma Cells. [Related pubchem assays: 1829 (Project Summary), 1814 (Primary HTS)]; type: functional
[25] = Luminescence Cell-Based Dose Response HTS to Identify Activators of Luciferase Translation or Activity in H4 […] Cells. [Related pubchem assays: 1829 (Project Summary), 1814 (Primary HTS)]; type: functional
[26] = tested on: H4; test: Luminescence Cell-Based Dose Response HTS to Identify Activators of 5'UTR Stem-Loop Driven Prion Protein mRNA Translation in H4 Neuroglioblastoma Cells. [Related pubchem assays: 1829 (Project Summary), 1814 (Primary HTS)]; type: functional; conditions: Homo sapiens
[27] = tested on: Vero; test: cells; type: functional, cell-based; conditions: Chlorocebus sabaeus
[28] = cells

## N#Cc1c(NC(=O)C2CC(Cl)=CCC2C(=O)O)sc2c1CCCCC2 (stereo not drawn)
[1]
  IC50: < 1 µM (active)
[2]
  IC50: > 73.5 µM (not active)
[3]
  IC50: > 59.6 µM (not active)
[4]
  EC50: 4.73 µM (active)

## CCCCC1CCC(C(=O)NCC(c2ccco2)N2CCOCC2)CC1 (stereo not drawn)
[5]
  EC50: 0.92 µM (active)

## Cc1ccc(C)n1-c1ccc(OCC(=O)O)cc1
[6]
  EC50: 8.75 µM (active)
[7]
  IC50: 36 µM (inactive)

## COc1ccc(OC)c(Nc2nc(-c3ccc(O)c(O)c3)cs2)c1
[8]
  EC50: 6.89 µM (active)
[9]
  IC50: > 50 µM (not active)
[10]
  IC50: > 100 µM (inconclusive)
[11]
  CC50: 9.32 µM (active)

## COc1ccc(NC(=O)CSc2nc3ccccc3c(=O)n2CCCN2CCCCC2)c(OC)c1
[12]
  IC50: 7.62 µM (active)
[13]
  IC50: 14.7 µM (not active)

## COc1ccc(C(=O)Nc2nc(O)c3cc(OC)c(OC)cc3n2)cc1
[14]
  EC50: 13.3 µM (not active)

## CC(=O)Nc1ccc(SCC(=O)c2cc(C)n(Cc3ccccc3)c2C)cc1
[15]
  EC50: > 30 µM (not active)

## O=C(Nc1ccc2nc(-c3ccco3)c(-c3ccco3)nc2c1)N1CCCCCC1
[16]
  IC50: > 100 µM (not active)
[17]
  IC50: 0.725 µM (active)
[18]
  IC50: > 100 µM (not active)
[19]
  IC50: 1.03 µM (active) and 1.85 µM (active)

## CCCCOc1cccc(OCCCC)c1C(=O)Nc1cc(C)on1
[20]
  IC50: > 35 µM (not active)
[21]
  IC50: > 35 µM (not active)
[22]
  IC50: 4.03 µM (active)

## O=C(Nc1ccc(N2CCCCC2)c(Cl)c1)c1cccnc1
[23]
  CC50: 15.4 µM (active)
[24]
  EC50: > 120 µM (not active)
[25]
  EC50: 6.12 µM (active)
[26]
  EC50: > 120 µM (not active)
[27]
  IC50: 8.75 µM (active)
[28]
  IC50: 13.6 µM (active)
